Legend:
HepG2 = test: cells; conditions: Homo sapiens, HepG2, 72 h
Description: Cytotoxicity against human HepG2 cells after 72 hrs by MTT assay

MCF7 = test: cells; conditions: Homo sapiens, MCF7, 72 h
Description: Cytotoxicity against human MCF7 cells after 72 hrs by MTT assay

A549 = test: Cytotoxicity against human A549 cells after 72 hrs by MTT assay; conditions: A549, 72 h
[1] = molecular target: Hepatocyte growth factor receptor (Homo sapiens, UniProt P08581); test: Inhibition of c-Met (unknown origin) using FAM-labeled peptide substrate after 10 mins by mobility shift assay
Hepatocyte growth factor receptor, sequence (P08581 whole entry): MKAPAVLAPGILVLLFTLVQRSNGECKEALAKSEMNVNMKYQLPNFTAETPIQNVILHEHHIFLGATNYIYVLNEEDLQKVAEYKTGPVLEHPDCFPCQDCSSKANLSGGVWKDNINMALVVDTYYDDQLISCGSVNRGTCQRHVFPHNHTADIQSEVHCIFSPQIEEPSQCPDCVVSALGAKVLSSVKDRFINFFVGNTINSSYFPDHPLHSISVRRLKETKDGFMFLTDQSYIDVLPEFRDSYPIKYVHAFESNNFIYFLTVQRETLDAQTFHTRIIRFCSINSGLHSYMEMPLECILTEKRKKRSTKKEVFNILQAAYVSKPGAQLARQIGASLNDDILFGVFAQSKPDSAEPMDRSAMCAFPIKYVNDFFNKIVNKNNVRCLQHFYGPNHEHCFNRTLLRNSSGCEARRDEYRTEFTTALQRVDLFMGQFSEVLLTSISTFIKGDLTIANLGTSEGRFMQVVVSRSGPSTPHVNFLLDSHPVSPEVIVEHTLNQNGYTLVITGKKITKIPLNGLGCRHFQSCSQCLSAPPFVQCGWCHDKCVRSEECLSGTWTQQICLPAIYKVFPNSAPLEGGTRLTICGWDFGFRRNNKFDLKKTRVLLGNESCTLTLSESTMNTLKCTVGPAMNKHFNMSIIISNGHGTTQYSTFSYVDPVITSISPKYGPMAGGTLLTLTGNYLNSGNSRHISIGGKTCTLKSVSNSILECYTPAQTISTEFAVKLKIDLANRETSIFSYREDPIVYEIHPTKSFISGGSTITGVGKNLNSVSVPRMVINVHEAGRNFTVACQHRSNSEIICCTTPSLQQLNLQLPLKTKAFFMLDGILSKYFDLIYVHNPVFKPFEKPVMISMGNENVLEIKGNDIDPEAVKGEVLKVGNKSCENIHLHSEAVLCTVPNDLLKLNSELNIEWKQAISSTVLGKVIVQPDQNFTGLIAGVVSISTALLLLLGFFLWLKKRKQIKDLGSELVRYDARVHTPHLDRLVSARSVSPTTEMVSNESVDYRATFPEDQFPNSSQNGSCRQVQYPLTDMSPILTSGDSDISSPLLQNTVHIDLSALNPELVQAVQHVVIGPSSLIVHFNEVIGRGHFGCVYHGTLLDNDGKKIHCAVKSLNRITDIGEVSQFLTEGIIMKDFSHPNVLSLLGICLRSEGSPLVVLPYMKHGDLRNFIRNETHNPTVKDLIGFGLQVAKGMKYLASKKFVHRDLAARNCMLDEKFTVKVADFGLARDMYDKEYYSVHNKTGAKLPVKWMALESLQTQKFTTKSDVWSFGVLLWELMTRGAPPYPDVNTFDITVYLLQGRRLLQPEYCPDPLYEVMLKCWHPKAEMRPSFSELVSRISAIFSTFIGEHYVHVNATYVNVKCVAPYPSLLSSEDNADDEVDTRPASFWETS

IC50 (HepG2) | IC50 (MCF7) | IC50 [1] | SMILES | IC50 (A549)
13.8 µM | 13.2 µM | – | Cc1cc(=O)n(-c2ccc(Br)cc2F)nc1C(=O)Nc1ccc(Oc2ncnc3sccc23)c(F)c1 | 11.5 µM
> 40 µM | > 40 µM | – | Cc1ccc(-n2nc(C(=O)Nc3ccc(Oc4ncnc5sccc45)c(F)c3)c(C)cc2=O)cc1 | > 40 µM
10.6 µM | 8.38 µM | – | CNC(=O)c1cc(Oc2ccc(NC(=O)c3nn(-c4ccc(C)cc4)c(=O)cc3C)cc2F)ccn1 | 11.5 µM
2.11 µM | 4.4 µM | 0.048 µM | Cc1cc(=O)n(-c2ccc(F)cc2)nc1C(=O)Nc1ccc(Oc2ncnc3ccsc23)cc1 | 2.36 µM
9.16 µM | 5.72 µM | – | O=C(Nc1ccc(Oc2ncnc3ccsc23)c(F)c1)c1nn(-c2ccc(F)cc2)ccc1=O | 8.23 µM
15.7 µM | 11.5 µM | – | Cc1cc(=O)n(-c2ccccc2OC(F)(F)F)nc1C(=O)Nc1ccc(Oc2ncnc3ccsc23)c(F)c1 | 5.72 µM
17.2 µM | 7.25 µM | – | Cc1ccc(-n2nc(C(=O)Nc3ccc(Oc4ncnc5ccsc45)c(F)c3)c(C)cc2=O)cc1 | 5.89 µM
10.2 µM | 6.41 µM | – | Cc1cc(=O)n(-c2cccc(F)c2)nc1C(=O)Nc1ccc(Oc2ncnc3ccsc23)cc1 | 9.54 µM
6.93 µM | 6.9 µM | – | Cc1cc(=O)n(-c2ccc(F)c(F)c2)nc1C(=O)Nc1ccc(Oc2ncnc3ccsc23)c(F)c1 | 4.59 µM
17.9 µM | 11.9 µM | – | Cc1ccc(-n2nc(C(=O)Nc3ccc(Oc4ncnc5ccsc45)cc3)c(C)cc2=O)c(C)c1 | 16.4 µM
7.81 µM | 9.05 µM | – | Cc1cc(=O)n(-c2cccc(F)c2)nc1C(=O)Nc1ccc(Oc2ncnc3ccsc23)c(F)c1 | 5.22 µM
14.7 µM | 13.8 µM | – | Cc1cc(=O)n(-c2ccccc2C(F)(F)F)nc1C(=O)Nc1ccc(Oc2ncnc3sccc23)c(F)c1 | 16.3 µM
> 40 µM | > 40 µM | – | CNC(=O)c1cc(Oc2ccc(NC(=O)c3nn(-c4ccccc4F)c(=O)cc3C)cc2F)ccn1 | > 40 µM
18.5 µM | 27.2 µM | – | Cc1cc(=O)n(-c2cccc(F)c2)nc1C(=O)Nc1ccc(Oc2ncnc3sccc23)cc1 | 16.4 µM
9.38 µM | 6.02 µM | – | Cc1cc(=O)n(-c2ccccc2C(F)(F)F)nc1C(=O)Nc1ccc(Oc2ncnc3ccsc23)c(F)c1 | 4.68 µM
14.4 µM | 11 µM | – | Cc1cc(=O)n(-c2ccccc2OC(F)(F)F)nc1C(=O)Nc1ccc(Oc2ncnc3sccc23)cc1 | 15.5 µM
24.4 µM | 17.3 µM | – | Cc1cc(=O)n(-c2cccc(F)c2)nc1C(=O)Nc1ccc(Oc2ncnc3sccc23)c(F)c1 | 19.5 µM
> 40 µM | 20.6 µM | – | Cc1cc(=O)n(-c2ccc(F)c(F)c2)nc1C(=O)Nc1ccc(Oc2ncnc3sccc23)c(F)c1 | 15.7 µM
16.8 µM | 16.1 µM | – | Cc1cc(=O)n(-c2ccc(F)c(F)c2)nc1C(=O)Nc1ccc(Oc2ncnc3sccc23)cc1 | 13.5 µM
> 40 µM | > 40 µM | – | Cc1cc(=O)n(-c2ccccc2C(F)(F)F)nc1C(=O)Nc1ccc(Oc2ncnc3sccc23)cc1 | 19.9 µM

IC50 (HepG2) | IC50 (MCF7) | IC50 [1] | SMILES | IC50 (A549)
25 µM | 23.8 µM | – | Cc1cc(=O)n(-c2ccccc2OC(F)(F)F)nc1C(=O)Nc1ccc(Oc2ncnc3ccsc23)cc1 | 10.1 µM
10.7 µM | 9.62 µM | – | O=C(Nc1ccc(Oc2ncnc3ccsc23)c(F)c1)c1nn(-c2ccc(Br)cc2)ccc1=O | 7.84 µM
13.5 µM | 12.4 µM | – | O=C(Nc1ccc(Oc2ncnc3ccsc23)c(F)c1)c1nn(-c2ccccc2)ccc1=O | 19.7 µM
10.6 µM | 9.36 µM | – | Cc1cc(=O)n(-c2ccc(Br)cc2F)nc1C(=O)Nc1ccc(Oc2ncnc3ccsc23)cc1 | 7.93 µM
> 40 µM | > 40 µM | – | CNC(=O)c1cc(Oc2ccc(NC(=O)c3nn(-c4ccccc4OC(F)(F)F)c(=O)cc3C)cc2F)ccn1 | > 40 µM
6.3 µM | 15.2 µM | – | Cc1cc(=O)n(-c2ccc(Br)cc2F)nc1C(=O)Nc1ccc(Oc2ncnc3sccc23)cc1 | 12.8 µM
10.6 µM | 6.63 µM | – | O=C(Nc1ccc(Oc2ncnc3ccsc23)c(F)c1)c1nn(-c2ccc(F)c(Cl)c2)ccc1=O | 9.65 µM
9.23 µM | 5.55 µM | – | Cc1cc(=O)n(-c2ccccc2C(F)(F)F)nc1C(=O)Nc1ccc(Oc2ncnc3ccsc23)cc1 | 8.85 µM
9.23 µM | 5.55 µM | – | Cc1cc(=O)n(-c2ccc(F)c(F)c2)nc1C(=O)Nc1ccc(Oc2ncnc3ccsc23)cc1 | 8.18 µM
> 40 µM | 35.7 µM | – | CNC(=O)c1cc(Oc2ccc(NC(=O)c3nn(-c4ccccc4C(F)(F)F)c(=O)cc3C)cc2F)ccn1 | > 40 µM
6.46 µM | 21 µM | – | Cc1cc(=O)n(-c2ccc(F)cc2)nc1C(=O)Nc1ccc(Oc2ncnc3sccc23)cc1 | 7.05 µM
25 µM | 23.8 µM | – | Cc1ccc(-n2nc(C(=O)Nc3ccc(Oc4ncnc5ccsc45)cc3)c(C)cc2=O)cc1 | 11.5 µM
2.83 µM | 9.36 µM | – | CNC(=O)c1cc(Oc2ccc(NC(=O)c3nn(-c4ccc(Br)cc4F)c(=O)cc3C)cc2F)ccn1 | 7.93 µM
24.2 µM | 23.2 µM | – | Cc1ccc(-n2ccc(=O)c(C(=O)Nc3ccc(Oc4ncnc5ccsc45)c(F)c3)n2)cc1 | 11.6 µM
> 40 µM | > 40 µM | – | Cc1ccc(-n2nc(C(=O)Nc3ccc(Oc4ncnc5sccc45)cc3)c(C)cc2=O)cc1 | > 40 µM
12.5 µM | 12.3 µM | – | Cc1cc(=O)n(-c2ccc(F)cc2)nc1C(=O)Nc1ccc(Oc2ncnc3sccc23)c(F)c1 | 2.62 µM
10.2 µM | 6.41 µM | – | CNC(=O)c1cc(Oc2ccc(NC(=O)c3nn(-c4cccc(F)c4)c(=O)cc3C)cc2F)ccn1 | 9.54 µM
3.35 µM | 1.55 µM | 0.032 µM | Cc1cc(=O)n(-c2ccc(Br)cc2F)nc1C(=O)Nc1ccc(Oc2ncnc3ccsc23)c(F)c1 | 2.98 µM
> 40 µM | > 40 µM | – | Cc1cc(=O)n(-c2ccccc2OC(F)(F)F)nc1C(=O)Nc1ccc(Oc2ncnc3sccc23)c(F)c1 | > 40 µM
